Test results taken from patent US20240108738A1, “BICYCLIC PEPTIDE LIGANDS SPECIFIC FOR NK CELLS” (Bicycle Tx Limited, priority 2021, published 2024).

Legend:
[1] = test system: human CD16a V176 variant; experiment: IgG competition assay (AlphaScreen), V variant; type: binding; details: N-terminally biotinylated CD16a V176 10 nM, mouse IgG2a acceptor beads
[2] = target: human FcγRIII (CD16a) (Homo sapiens, UniProt P08637); experiment: FcγRIII (CD16a) SPR (Method A); type: binding
Protocol: SPR experiments were performed to determine ka (M^−1s^−1), kd (s^−1), KD (nM) values (where measurable) of various bicyclic peptides to immobilized human FcγRIII proteins.
For analysis of peptide binding, a Biacore 3000 or T200 instrument was used with a CM5 chip (GE Healthcare). Streptavidin was immobilized on the chip using standard amine-coupling chemistry at 25° C. with HBS-N (10 mM HEPES, 0.15 M NaCl, pH 7.4) as the running buffer. Briefly, the carboxymethyl dextran surface was activated with a 7 min injection of a 1:1 ratio of 0.4 M 1-ethyl-3-(3-dimethylaminopropyl) carbodiimide hydrochloride (EDC)/0.1 M N-hydroxy succinimide (NHS) at a flow rate of 10 μl/min. For capture of streptavidin, the protein was diluted to 0.2 mg/ml in 10 mM sodium acetate (pH 4.5) and captured by injecting 120 μl of onto the activated chip surface. Residual activated groups were blocked with a 7 min injection of 1 M ethanolamine (pH 8.5) and biotinylated FcγRIII captured to a level of 400-1,400 RU. Buffer was changed to PBS/0.05% Tween 20 and a dilution series of the peptides was prepared in this buffer with a final DMSO concentration of 0.5%. […] The SPR analysis was run at 25° C. at a flow rate of 50 μl/min with 60 seconds association and dissociation between 60 and 200 seconds. Data were corrected for DMSO excluded volume effects. […]

[3] = test system: CD56- CD3+ (T-cell population) from human PBMCs; experiment: Flow cytometry binding to PBMCs, CD56-/CD3+ (T-cell) population; type: cell-based; details: FIG. 2B
Protocol: (§1) The affinity of NKp46 dimeric bicyclic peptides conjugated to Alexa Fluor® 488 to primary healthy peripheral blood mononuclear cells (PBMCs) was evaluated using a flow cytometry assay.
(§2) On the day of the experiment, medium was prepared by supplementing RPMI-1640 (Gibco™ 11875-093; with L-glutamine) with 10% heat-inactivated fetal bovine serum (FBS; Corning® 35-011-CV), 10 mM HEPES (Gibco™ 15-630-080), and 1% Penicillin Streptomycin (Corning™ 30-002-Cl), herein referred to as working medium. Previously isolated human peripheral blood mononuclear cells (PBMCs), from whole blood, were quick thawed in a water bath and washed once at 500 rpm for 5 minutes in 10 mL of prewarmed working medium. […]
(§3) Preparation of samples for flow cytometry: Zombie Aqua™ Fixable Viability Dye (BioLegend® 423102) was prepared as a 1:1000 dilution in PBS and 100 μL of viability dye was added to each well and incubated in the dark at 4° C. for 30 minutes. […] Cells were resuspended in 200 μL of stain buffer and kept at 4° C. in the dark until read by BD FACSCelesta™ flow cytometer.
(§4) Flow cytometry results were analyzed in FlowJo™ software with a gating strategy to evaluate the lymphocyte population then exclude debris, gate on single and live cells only, and determining the geometric mean of the Alexa Fluor® 488 in the CD3+ and CD3−/CD56+ populations. […]

[4] = test system: CD56+ (NK cells) from human PBMCs; experiment: Flow cytometry binding to PBMCs, CD56+ (NK cell) population; type: cell-based; details: FIG. 2A
Protocol: as §1, §2, §3, §4

Chain of human FcγRIII (CD16a) (P08637 17-254): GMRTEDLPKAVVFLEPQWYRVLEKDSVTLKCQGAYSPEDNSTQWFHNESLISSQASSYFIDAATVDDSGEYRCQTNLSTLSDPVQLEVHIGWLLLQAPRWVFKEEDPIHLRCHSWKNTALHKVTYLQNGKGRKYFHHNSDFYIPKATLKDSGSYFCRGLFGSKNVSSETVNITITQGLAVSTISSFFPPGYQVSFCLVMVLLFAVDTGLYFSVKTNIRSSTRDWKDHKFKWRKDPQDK

Row | Compound | IC50 [1] [nM] | Kd [2] [µM] | binding to CD56-/CD3+ (T-cell) population of PBMCs (in words) [3] | binding to CD56+ (NK cell) population of PBMCs (in words) [4]
1 | C#CCCC(=O)NCCCC[C@H](NC(=O)[C@H](C)NC(=O)[C@@H]1CSCc2nc3nc(n2)CSC[C@H](NC(=O)[C@@H]2CCCN2C(=O)CNC(=O)[C@H](CC(C)C)NC(=O)[C@H](CCC(=O)O)NC(=O)[C@H](CCC(=O)O)NC(=O)[C@H](CC(C)C)NC(=O)CNC(=O)[C@H](C(C)C)NC(=O)[C@@H](NC(=O)[C@H](C)N)CSC3)C(=O)N[C@@H](CO)C(=O)N[C@@H](CC(=O)O)C(=O)N[C@@H](CC(C)C)C(=O)N1)C(N)=O [BCY13886, A-(SEQ ID NO: 62)-A-[K(PYA)]] | 3190 | 2.2 | – | –
2 | BCY15663: AF488 NKp46 homodimer of BCY15452, C-term D-Lys(PYA), linker N-(amine-PEG2)-N-bis(PEG3-azide) (ACYLPDYLCGDEYCAK; not fully specified; D-residues) | – | – | binding to NK cells only | dose-dependent binding
